{"source": "patent US9695155B2", "about": "“Herbicidal substituted pyrimidinyloxy benzene compounds” (E. I. DU PONT DE NEMOURS AND COMPANY, priority 2013, dated 2017)", "key": {"[1]": {"system": "pigweed", "test": "Test D preemergence", "type": "in vivo, Amaranthus retroflexus", "source_text": "(§1) Seeds of plant species selected from bluegrass (annual bluegrass, Poa annua), blackgrass (Alopecurus myosuroides), canarygrass (littleseed canarygrass, Phalaris minor), chickweed (common chickweed, Stellaria media), galium (catchweed bedstraw, Galium aparine), bromegrass, downy (downy bromegrass, Bromus tectorum), field poppy (Papaver rhoeas), field violet (Viola arvensis), green foxtail (Setaria viridis), deadnettle (henbit deadnettle, Lamium amplexicaule), Italian ryegrass (Lolium multiflorum), kochia (Kochia scoparia), lambsquarters (Chenopodium album), oilseed rape (Brassica napus), pigweed (Amaranthus retroflexus), chamomile (scentless chamomile, Matricaria inodora), Russian thistle (Salsola kali), speedwell (bird's-eye speedwell, Veronica persica), spring barley (Hordeum vulgare), spring wheat (Triticum aestivum), wild buckwheat (Polygonum convolvulus), wild mustard (Sinapis arvensis), wild oat (Avena fatua), wild radish (Raphanus raphanistrum), windgrass (Apera spica-venti), winter barley (Hordeum vulgare), and winter wheat (Triticum aestivum) were planted into a silt loam soil and treated preemergence with test chemicals formulated in a non-phytotoxic solvent mixture which included a surfactant.\n(§2) At the same time, these species were planted in pots containing Redi-Earth® planting medium (Scotts Company, 14111 Scottslawn Road, Marysville, Ohio 43041) comprising spaghnum peat moss, vermiculite, wetting agent and starter nutrients and treated with postemergence applications of the test chemicals formulated in the same manner. Plants ranged in height from 2 to 18 cm (1- to 4-leaf stage). Treated plants and controls were maintained in a controlled growth environment for 7 to 21 days after which time all species were compared to controls and visually evaluated. Plant response ratings, summarized in Table D, are based on a scale of 0 to 100 where 0 is no effect and 100 is complete control. A dash (-) response means no test result."}, "[2]": {"system": "wild mustard", "test": "Test D preemergence", "type": "in vivo, Sinapis arvensis", "source_text": "as §1, §2"}, "[3]": {"system": "wild radish", "test": "Test D preemergence", "type": "in vivo, Raphanus raphanistrum", "source_text": "as §1, §2"}, "[4]": {"system": "bluegrass", "test": "Test D postemergence", "type": "in vivo, Poa annua", "source_text": "as §1, §2"}, "[5]": {"system": "blackgrass", "test": "Test D postemergence", "type": "in vivo, Alopecurus myosuroides", "source_text": "as §1, §2"}, "[6]": {"system": "field poppy", "test": "Test D postemergence", "type": "in vivo, Papaver rhoeas", "source_text": "as §1, §2"}, "[7]": {"system": "deadnettle", "test": "Test D postemergence", "type": "in vivo, Lamium amplexicaule", "source_text": "as §1, §2"}, "[8]": {"system": "spring barley", "test": "Test D postemergence", "type": "in vivo, Hordeum vulgare", "source_text": "as §1, §2"}, "[9]": {"system": "winter barley", "test": "Test D postemergence", "type": "in vivo, Hordeum vulgare", "source_text": "as §1, §2"}, "[10]": {"settings": "16 g ai/ha, scale 0 (no effect) to 100 (complete control)"}, "[11]": {"settings": "31 g ai/ha, scale 0 (no effect) to 100 (complete control)"}, "[12]": {"settings": "Postemergence, 62 g ai/ha, scale 0 to 100 (0 no effect, 100 complete control)"}, "[13]": {"settings": "Postemergence, 31 g ai/ha, scale 0 to 100 (0 no effect, 100 complete control)"}, "[14]": {"settings": "Postemergence, 125 g ai/ha, scale 0 to 100 (0 no effect, 100 complete control)"}, "[15]": {"settings": "Postemergence, 250 g ai/ha, scale 0 to 100 (0 no effect, 100 complete control)"}, "[16]": {"settings": "postemergence, 16 g ai/ha, scale 0 to 100, 0 no effect, 100 complete control"}, "[17]": {"settings": "31 g ai/ha, scale 0 to 100 (0 no effect, 100 complete control)"}, "[18]": {"settings": "62 g ai/ha, scale 0 to 100 (0 no effect, 100 complete control)"}, "[19]": {"settings": "250 g ai/ha, scale 0 to 100 (0 no effect, 100 complete control)"}}, "data": [{"smiles": "Clc1cnc(Oc2ccccc2-n2cc(Cl)cn2)nc1", "note": "[Compound 3]", "values": [{"measurement": "Plant response rating, Pigweed", "setting": "[1]; [10]", "value": 0}, {"measurement": "Plant response rating, Pigweed", "setting": "[1]; [11]", "value": 0}, {"measurement": "Plant response rating, Pigweed", "setting": "[1]; 62 g ai/ha, scale 0-100", "value": 40}, {"measurement": "Plant response rating, Pigweed", "setting": "[1]; 125 g ai/ha, scale 0-100", "value": 80}, {"measurement": "Plant response rating, Pigweed", "setting": "[1]; 250 g ai/ha, scale 0-100", "value": 100}, {"measurement": "Plant response rating, Mustard, Wild", "setting": "[2]; [10]", "value": 30}, {"measurement": "Plant response rating, Mustard, Wild", "setting": "[2]; 31 g ai/ha, scale 0-100", "value": 80}, {"measurement": "Plant response rating, Mustard, Wild", "setting": "[2]; 62 g ai/ha, scale 0-100", "value": 80}, {"measurement": "Plant response rating, Mustard, Wild", "setting": "[2]; 125 g ai/ha, scale 0-100", "value": 90}, {"measurement": "Plant response rating, Mustard, Wild", "setting": "[2]; 250 g ai/ha, scale 0-100", "value": 100}, {"measurement": "Plant response rating, Radish, Wild", "setting": "[3]; [10]", "value": 0}, {"measurement": "Plant response rating, Radish, Wild", "setting": "[3]; [11]", "value": 20}, {"measurement": "Plant response rating, Radish, Wild", "setting": "[3]; 62 g ai/ha, scale 0-100", "value": 60}, {"measurement": "Plant response rating, Radish, Wild", "setting": "[3]; 125 g ai/ha, scale 0-100", "value": 90}, {"measurement": "Plant response rating, Radish, Wild", "setting": "[3]; 250 g ai/ha, scale 0-100", "value": 95}, {"measurement": "Plant response rating, Bluegrass", "setting": "[4]; [12]", "value": 0}, {"measurement": "Plant response rating, Bluegrass", "setting": "[4]; [13]", "value": 0}, {"measurement": "Plant response rating, Bluegrass", "setting": "[4]; [14]", "value": 0}, {"measurement": "Plant response rating, Bluegrass", "setting": "[4]; [15]", "value": 10}, {"measurement": "Plant response rating, Bluegrass", "setting": "[4]; [16]", "value": 40}, {"measurement": "Plant response rating, Blackgrass", "setting": "[5]; [12]", "value": 0}, {"measurement": "Plant response rating, Blackgrass", "setting": "[5]; [13]", "value": 0}, {"measurement": "Plant response rating, Blackgrass", "setting": "[5]; [14]", "value": 0}, {"measurement": "Plant response rating, Blackgrass", "setting": "[5]; [15]", "value": 10}, {"measurement": "Plant response rating, Blackgrass", "setting": "[5]; [16]", "value": 70}, {"measurement": "Plant response rating, Field Poppy", "setting": "[6]; 16 g ai/ha, scale 0-100", "value": 10}, {"measurement": "Plant response rating, Field Poppy", "setting": "[6]; [17]", "value": 0}, {"measurement": "Plant response rating, Field Poppy", "setting": "[6]; [18]", "value": 0}, {"measurement": "Plant response rating, Field Poppy", "setting": "[6]; [19]", "value": 0}, {"measurement": "Plant response rating, Deadnettle", "setting": "[7]; 16 g ai/ha, scale 0-100", "value": 10}, {"measurement": "Plant response rating, Deadnettle", "setting": "[7]; [17]", "value": 10}, {"measurement": "Plant response rating, Deadnettle", "setting": "[7]; [18]", "value": 10}, {"measurement": "Plant response rating, Deadnettle", "setting": "[7]; 125 g ai/ha, scale 0 to 100 (0 no effect, 100 complete control)", "value": 10}, {"measurement": "Plant response rating, Deadnettle", "setting": "[7]; [19]", "value": 20}, {"measurement": "Plant response rating, Barley, Spring", "setting": "[8]; [12]", "value": 0}, {"measurement": "Plant response rating, Barley, Spring", "setting": "[8]; [13]", "value": 0}, {"measurement": "Plant response rating, Barley, Spring", "setting": "[8]; [14]", "value": 0}, {"measurement": "Plant response rating, Barley, Spring", "setting": "[8]; [15]", "value": 10}, {"measurement": "Plant response rating, Barley, Spring", "setting": "[8]; [16]", "value": 50}, {"measurement": "Plant response rating, Barley, Winter", "setting": "[9]; [12]", "value": 0}, {"measurement": "Plant response rating, Barley, Winter", "setting": "[9]; [13]", "value": 0}, {"measurement": "Plant response rating, Barley, Winter", "setting": "[9]; [14]", "value": 0}, {"measurement": "Plant response rating, Barley, Winter", "setting": "[9]; [15]", "value": 0}, {"measurement": "Plant response rating, Barley, Winter", "setting": "[9]; [16]", "value": 50}]}]}
